Source: patent US5834010A, “Triacetin as a penetration enhancer for transdermal delivery of a basic drug” (priority 1997, dated 1998)
Where two headings read alike, the source gives them in different places.

Assays:
[1] = In vitro human cadaver skin flux of oxybutynin free base from adhesive matrix patches (modified Franz cells)
Protocol: In vitro human cadaver skin flux studies were conducted using modified Franz non-jacketed permeation cells. The temperature of the cells was maintained at 32° C. by placing the cells in a circulating water bath positioned over a stirring module. The epidermal membrane was separated from the human cadaver whole skin by the heat-separation method of Kligman & Christopher, 88 Arch. Dermatol. 702 (1963), hereby incorporated by reference, involving treating the full thickness skin at 60° C. for 60 seconds, after which time the stratum corneum and the epidermis (epidermal membrane) were gently peeled from the dermis.
For skin flux studies of matrix devices, the epidermal membrane was cut into rectangular strips, and the matrix device was cut into 0.96 cm^2 circular discs. The release liner was peeled from the disc, and the disc was laminated onto the stratum corneum surface of the epidermal membrane to form a skin-matrix laminate. The skin-matrix laminate was then loaded between the donor and receiver compartments of a diffusion cell with the epidermal side facing the receiver compartment. The laminate was clamped in place, and the receiver compartment was then filled with an appropriate receiving solution for a selected drug. The receiving solution was selected such that the drug was stable in the solution, the subsequent assay of the drug was not interfered with, and solubility of the drug was adequate to ensure sink conditions throughout the experiment. The diffusion cell was then placed in a circulating water bath calibrated to maintain the skin surface temperature at 32°±1° C. At predetermined sampling intervals, the entire contents of the receiver compartment were collected for drug quantitation, and the receiver compartment was filled with fresh receiving solution, taking care to eliminate any air bubbles at the skin/solution interface.
The cumulative amount of drug permeating through the epidermal membrane, Qt (μg/cm^2), at any time t was determined from the following formula: [formula] where Cn is the concentration (μg/ml) of the drug in the receiver sample for the corresponding sample time, V is the volume of fluid in the receiver chamber (~6.3 cm^3), and A is the diffusional area of the cell (0.64 cm^2). The slope of the best fit line to the plot of Qt vs. t gives the steady state flux (Jss, μg/cm^2 /hr); the intercept of this line on the time axis give the lag time (tL,h).
Matrix patches containing varying amounts of oxybutynin free base and penetration enhancers were prepared and tested as described above. The matrix systems consisted of 5 to 20% by weight of oxybutynin free base and 0 to 20% by weight of the enhancer contained in a medical grade acrylic copolymer adhesive.
The matrix formulations were prepared as follows. First, the solids content of the adhesive was determined by weighing a small amount of the adhesive solution in a preweighed aluminum dish. The solvent was evaporated by overnight drying in a convection oven maintained at 80° C. and the weight of the residue (dry adhesive) and percent solid adhesive content of the solution were determined. Once the solids content was determined, a known weight of the acrylic copolymer adhesive solution was weighed into a glass bottle. From the weight of the adhesive solution and the percent solid adhesive content, the amount of adhesive in the solution was calculated. Oxybutynin free base and enhancer were added to the bottle in proportions to yield the selected final composition. The bottle was then tightly capped, sealed with laboratory film, and rotated overnight until all ingredients had completely dissolved and the resultant solution was visually clear.
Approximately 8 ml of the solution was then dispensed on a silanized polyester release liner and cast with a 10 mil gap casting knife. The casting was then dried in a convection oven at 70° C. for 15 minutes to evaporate the solvent and to yield a dried film approximately 0.002 inch thick.

[2] = In vitro human cadaver skin flux of oxybutynin free base from liquid reservoir gel formulations; format: in vitro ADME
Protocol: For skin flux studies of gel formulations (i.e., for liquid reservoir patch designs), the epidermal membrane was cut and placed between two halves of the permeation cell with the stratum corneum facing the donor compartment. The skin was allowed to hydrate at 32° C. overnight with 0.02% (w/v) sodium azide solution in the receiver compartment. The following morning, 75 μl of a gelled formulation was placed into a cavity created by placing a polytetrafluoroethylene washer over the stratum corneum surface. The cavity was then occluded by clamping an occlusive backing over the washer and gel. An appropriate receiving solution for a selected drug was placed in the receiver compartment in contact with the dermal side of the epidermis.
Liquid reservoir gel formulations containing oxybutynin free base and triacetin were tested as described above. Such liquid reservoir gel formulations were prepared in 10 ml quantities. Ethanol, water, glycerin, and triacetin were mixed in selected proportions in a capped vial. Then, 400 mg of oxybutynin free base was added to the vial, and the vial was capped and ultrasonicated to completely dissolve the drug. Next, 0.3 g of modified hydroxyethyl cellulose (NATROSOL PLUS 330CS, Aqualon, Wilmington, Del.) as a gelling agent was added to the mixture and the contents were mixed thoroughly and gently rotated overnight to completely dissolve the gelling agent.

[3] = isosorbide dinitrate, JP05148141-A; cited from earlier work
[4] = Allen, U.S. Pat. No. 4,895,727; cited from earlier work
[5] = propylene glycol/linoleic acid enhancer system; cited from earlier work
[6] = Enhancement of transdermal penetration, general statement; format: in vitro ADME
Source text: As used herein, the terms "enhancement", "penetration enhancement" or "permeation enhancement" mean an increase in the permeability of a biological membrane (i.e. skin or mucosa) to a drug, so as to increase the rate at which the drug permeates through the membrane. "Permeation enhancer," "enhancer," "penetration enhancer," or similar term means a material that achieves such permeation enhancement, and an "effective amount" of an enhancer means an amount effective to enhance penetration through the skin or mucosa of a selected agent to a selected degree. The enhanced permeation as effected though the use of such enhancers can be observed, for example, by measuring the rate of diffusion of the drug through animal or human skin using a diffusion cell apparatus. Such a diffusion cell is described by Merritt et al., Diffusion Apparatus for Skin Penetration, 1 J. of Controlled Release 61 (1984), incorporated herein by reference.

[7] = plaster with glycol and surfactant, WO9309783-A1; cited from earlier work

CN1CCCC1=O [N-methyl pyrrolidone, reference compound]
exhibited the ability to increase transdermal skin flux of oxybutynin free base [1]: none of the well known penetration enhancers tested

CCCCCCCC/C=C\CCCCCCCC(=O)OCC(O)CO (centres unmarked) [glycerol monooleate, reference compound]
exhibited the ability to increase transdermal skin flux of oxybutynin free base ([1]; matrix system, TSR adhesive): none of the well known penetration enhancers tested

CCCCCCCCCCCCCC(=O)OC(C)C [isopropyl myristate, reference compound]
exhibited the ability to increase transdermal skin flux of oxybutynin free base ([1]; matrix system, TSR adhesive): none of the well known penetration enhancers tested

CCCCCCCCCCCCO [lauryl alcohol, reference compound]
exhibited the ability to increase transdermal skin flux of oxybutynin free base ([1]; matrix system, TSR adhesive): none of the well known penetration enhancers tested

CC(=O)OCC(COC(C)=O)OC(C)=O [triacetin, glyceryl triacetate]
penetration enhancement with liquid reservoir patches [2]: no penetration enhancement of basic drugs (including oxybutynin) or other drugs has been observed
penetration enhancing effect of triacetin [3]: shown only in conjunction with a neutral, solvent-acting drug
effect on skin flux of oxybutynin free base [1]: significantly increases the skin flux of oxybutynin free base
antifungal activity [4]: has activity as an antifungal agent
flux of oxymorphone with increasing amounts of triacetin and decreasing linoleic acid [5]: decreasing flux
lag time for permeation of oxymorphone with increasing amounts of triacetin and decreasing linoleic acid [5]: increasing lag time
enhancing transdermal penetration of basic drugs ([6]; basic drugs, particularly pKa of about 8.0 or above, matrix patch): effective in enhancing transdermal penetration of basic drugs
enhancing transdermal penetration of neutral or acidic drugs ([6]; neutral or acidic drugs): not of neutral or acidic drugs
percutaneous absorption of piroxicam [7]: enhances percutaneous absorption of piroxicam

sorbitan monooleate [reference compound]
exhibited the ability to increase transdermal skin flux of oxybutynin free base ([1]; matrix system, TSR adhesive): none of the well known penetration enhancers tested
